Laboratory results from US9486506B2 (Novo Nordisk A/S, priority 2011, dated 2016).
Numbered stars: 1 amine (or outer) side, 2 acyl side, 3 side chain; on linkers, the order of the positions; unused ones are H or OH. Side chains are listed from the residue outwards. Peptide text beside a SMILES is read from it. * marks the point of attachment. C18 diacid = O=C(O)CCCCCCCCCCCCCCCCC(=O)*; γGlu = O=C(O)[C@H](CCC(=O)[*:2])N[*:1]; AEEA = NCCOCCOCC(=O)O

Biological target: T1, glucagon receptor (Homo sapiens, UniProt P47871)
T1 construct: expressed in transfected cells
T1 sequence (P47871 26-477): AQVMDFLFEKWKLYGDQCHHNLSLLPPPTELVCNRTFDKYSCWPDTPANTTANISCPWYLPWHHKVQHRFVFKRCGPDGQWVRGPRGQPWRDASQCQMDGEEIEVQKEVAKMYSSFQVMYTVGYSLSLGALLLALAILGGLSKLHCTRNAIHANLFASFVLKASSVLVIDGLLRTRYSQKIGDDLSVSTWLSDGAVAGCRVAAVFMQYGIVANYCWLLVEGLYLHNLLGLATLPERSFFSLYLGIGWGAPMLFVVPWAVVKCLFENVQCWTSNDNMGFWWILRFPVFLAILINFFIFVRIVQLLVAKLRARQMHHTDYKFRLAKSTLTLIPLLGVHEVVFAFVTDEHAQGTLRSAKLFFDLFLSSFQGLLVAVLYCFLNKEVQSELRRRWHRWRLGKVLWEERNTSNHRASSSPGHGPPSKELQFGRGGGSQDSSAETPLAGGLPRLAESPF
Assay: Assay (I) Glucagon activity (cAMP biosensor, FLIPR)
Format: cell-based
Protocol: The cells (14000 per well) were incubated (37° C., 5% CO2) overnight in 384-well plates. Next day the cells were loaded with a calcium responsive dye that only distributed into the cytoplasm. Probenecid, an inhibitor of the organic anion transporter, was added to prevent the dye from leaving the cell. A PDE inhibitor was added to prevent formatted cAMP from being degraded. The plates were placed into a […] and the glucagon analogues were added. End point data were collected after 6 minutes. An increase in intracellular cAMP was proportional to an increased in calcium concentrations in the cytoplasm. When calcium was bound the dry a fluorescence signal was generated. EC50-values were calculated in Prism5.

SMILES | EC50 [nM]
CC(C)C[C@H](NC(=O)[C@H](Cc1c[nH]c2ccccc12)NC(=O)[C@H](CCCCNC(=O)CC[C@H](NC(=O)CC[C@H](NC(=O)COCCOCCNC(=O)COCCOCCNC(=O)CC[C@H](NC(=O)CCCCCCCCCCCCCCCCC(=O)O)C(=O)O)C(=O)O)C(=O)O)NC(=O)[C@@H](NC(=O)[C@H](Cc1ccccc1)NC(=O)[C@H](CC(=O)O)NC(=O)[C@H](CCC(N)=O)NC(=O)[C@H](C)NC(=O)[C@H](CCCNC(=N)N)NC(=O)[C@H](CCCNC(=N)N)NC(=O)[C@@H](NC(=O)[C@H](CC(=O)O)NC(=O)[C@H](CC(C)C)NC(=O)[C@H](Cc1ccc(O)cc1)NC(=O)[C@H](CCCCN)NC(=O)[C@H](CO)NC(=O)[C@H](Cc1ccc(O)cc1)NC(=O)[C@H](CC(=O)O)NC(=O)[C@H](CO)NC(=O)[C@@H](NC(=O)[C@H](Cc1ccccc1)NC(=O)[C@@H](NC(=O)CNC(=O)[C@H](CCC(N)=O)NC(=O)[C@H](CO)NC(=O)[C@@H](N)Cc1c[nH]cn1)[C@@H](C)O)[C@@H](C)O)C(C)C)C(C)C)C(=O)N[C@@H](CC(C)C)C(=O)N[C@@H](CO)C(=O)N[C@H](C(=O)O)[C@@H](C)O [Example 30, N^ε24-[(4S)-4-carboxy-4-[[(4S)-4-carboxy-4-[[2-[2-[2-[[2-[2-[2-[[(4S)-4-carboxy-4-(17-carboxyheptadecanoylamino)butanoyl]amino]ethoxy]ethoxy]acetyl]amino]ethoxy]ethoxy]acetyl]amino]butanoyl]amino]butanoyl]-[Val16,Lys24,Leu27,Ser28]-Glucagon] | 0.307
CC(C)C[C@H](NC(=O)[C@H](Cc1c[nH]c2ccccc12)NC(=O)[C@H](CCCCNC(=O)CC[C@H](NC(=O)CC[C@H](NC(=O)COCCOCCNC(=O)COCCOCCNC(=O)CC[C@H](NC(=O)CCCCCCCCCCCCCCCCC(=O)O)C(=O)O)C(=O)O)C(=O)O)NC(=O)[C@@H](NC(=O)[C@H](Cc1ccccc1)NC(=O)[C@H](CCC(=O)O)NC(=O)[C@H](CCC(N)=O)NC(=O)[C@H](C)NC(=O)[C@H](CCCNC(=N)N)NC(=O)[C@H](CCCNC(=N)N)NC(=O)[C@@H](NC(=O)[C@H](CC(=O)O)NC(=O)[C@H](CC(C)C)NC(=O)[C@H](Cc1ccc(O)cc1)NC(=O)[C@H](CCCCN)NC(=O)[C@H](CO)NC(=O)[C@H](Cc1ccc(O)cc1)NC(=O)[C@H](CC(=O)O)NC(=O)[C@H](CO)NC(=O)[C@@H](NC(=O)[C@H](Cc1ccccc1)NC(=O)[C@@H](NC(=O)CNC(=O)[C@H](CCC(N)=O)NC(=O)[C@H](CO)NC(=O)[C@@H](N)Cc1c[nH]cn1)[C@@H](C)O)[C@@H](C)O)[C@@H](C)O)C(C)C)C(=O)N[C@@H](CC(C)C)C(=O)N[C@@H](CO)C(=O)N[C@H](C(=O)O)[C@@H](C)O [Example 31, N^ε24-[(4S)-4-carboxy-4-[[(4S)-4-carboxy-4-[[2-[2-[2-[[2-[2-[2-[[(4S)-4-carboxy-4-(17-carboxyheptadecanoylamino)butanoyl]amino]ethoxy]ethoxy]acetyl]amino]ethoxy]ethoxy]acetyl]amino]butanoyl]amino]butanoyl]-[Thr16,Glu21,Lys24,Leu27,Ser28]-Glucagon] (H-HSQGTFTSDYSKYLDTRRAQEFVK([γGlu-γGlu-AEEA-AEEA-γGlu-C18 diacid])WLLST-OH) | 0.072
CC[C@H](C)[C@H](NC(=O)[C@H](CC(N)=O)NC(=O)[C@H](CC(C)C)NC(=O)[C@H](CC(C)C)NC(=O)[C@H](Cc1c[nH]c2ccccc12)NC(=O)[C@H](CCCCNC(=O)CC[C@H](NC(=O)COCCOCCNC(=O)COCCOCCNC(=O)CC[C@H](NC(=O)CCCCCCCCCCCCCCCCC(=O)O)C(=O)O)C(=O)O)NC(=O)[C@@H](NC(=O)[C@H](Cc1ccccc1)NC(=O)[C@H](CC(=O)O)NC(=O)[C@H](CCC(N)=O)NC(=O)[C@H](C)NC(=O)[C@H](CCCNC(=N)N)NC(=O)[C@H](CCCNC(=N)N)NC(=O)[C@H](CO)NC(=O)[C@H](CCC(=O)O)NC(=O)[C@H](CC(C)C)NC(=O)[C@H](Cc1ccc(O)cc1)NC(=O)[C@H](CCCCN)NC(=O)[C@H](CO)NC(=O)[C@H](Cc1ccc(O)cc1)NC(=O)[C@H](CC(=O)O)NC(=O)[C@H](CO)NC(=O)[C@@H](NC(=O)[C@H](Cc1ccccc1)NC(=O)[C@@H](NC(=O)CNC(=O)[C@H](CCC(N)=O)NC(=O)[C@H](CO)NC(=O)[C@@H](N)Cc1c[nH]cn1)[C@@H](C)O)[C@@H](C)O)C(C)C)C(=O)O [Example 32, N^ε24-[(4S)-4-carboxy-4-[[2-[2-[2-[[2-[2-[2-[[(4S)-4-carboxy-4-(17-carboxyheptadecanoylamino)butanoyl]amino]ethoxy]ethoxy]acetyl]amino]ethoxy]ethoxy]acetyl]amino]butanoyl]-[Glu15,Lys24,Leu27,Ile29]-Glucagon] | 1.12
CC(C)C[C@H](NC(=O)[C@H](Cc1ccc(O)cc1)NC(=O)[C@H](CCCCN)NC(=O)[C@H](CO)NC(=O)[C@H](Cc1ccc(O)cc1)NC(=O)[C@H](CC(=O)O)NC(=O)[C@H](CO)NC(=O)[C@@H](NC(=O)[C@H](Cc1ccccc1)NC(=O)[C@@H](NC(=O)CNC(=O)[C@H](CCC(N)=O)NC(=O)[C@H](CO)NC(=O)[C@@H](N)Cc1c[nH]cn1)[C@@H](C)O)[C@@H](C)O)C(=O)N[C@@H](CCC(=O)O)C(=O)N[C@@H](CO)C(=O)N[C@@H](CCCNC(=N)N)C(=O)N[C@@H](CCCNC(=N)N)C(=O)N[C@@H](C)C(=O)N[C@@H](CCC(N)=O)C(=O)N[C@@H](CC(=O)O)C(=O)N[C@@H](Cc1ccccc1)C(=O)N[C@H](C(=O)N[C@@H](CCCCNC(=O)CC[C@H](NC(=O)COCCOCCNC(=O)COCCOCCNC(=O)CC[C@H](NC(=O)CCCCCCCCCCCCCCCCC(=O)O)C(=O)O)C(=O)O)C(=O)N[C@@H](Cc1c[nH]c2ccccc12)C(=O)N[C@@H](CC(C)C)C(=O)N[C@@H](CC(C)C)C(=O)N[C@@H](CC(N)=O)C(=O)N[C@H](C(=O)O)C(C)C)C(C)C [Example 33, N^ε24-[(4S)-4-carboxy-4-[[2-[2-[2-[[2-[2-[2-[[(4S)-4-carboxy-4-(17-carboxyheptadecanoylamino)butanoyl]amino]ethoxy]ethoxy]acetyl]amino]ethoxy]ethoxy]acetyl]amino]butanoyl]-[Glu15,Lys24,Leu27,Val29]-Glucagon] | 0.92
CC(C)C[C@H](NC(=O)[C@H](CC(N)=O)NC(=O)[C@H](CC(C)C)NC(=O)[C@H](CC(C)C)NC(=O)[C@H](Cc1c[nH]c2ccccc12)NC(=O)[C@H](CCCCNC(=O)CC[C@H](NC(=O)COCCOCCNC(=O)COCCOCCNC(=O)CC[C@H](NC(=O)CCCCCCCCCCCCCCCCC(=O)O)C(=O)O)C(=O)O)NC(=O)[C@@H](NC(=O)[C@H](Cc1ccccc1)NC(=O)[C@H](CC(=O)O)NC(=O)[C@H](CCC(N)=O)NC(=O)[C@H](C)NC(=O)[C@H](CCCNC(=N)N)NC(=O)[C@H](CCCNC(=N)N)NC(=O)[C@H](CO)NC(=O)[C@H](CCC(=O)O)NC(=O)[C@H](CC(C)C)NC(=O)[C@H](Cc1ccc(O)cc1)NC(=O)[C@H](CCCCN)NC(=O)[C@H](CO)NC(=O)[C@H](Cc1ccc(O)cc1)NC(=O)[C@H](CC(=O)O)NC(=O)[C@H](CO)NC(=O)[C@@H](NC(=O)[C@H](Cc1ccccc1)NC(=O)[C@@H](NC(=O)CNC(=O)[C@H](CCC(N)=O)NC(=O)[C@H](CO)NC(=O)[C@@H](N)Cc1c[nH]cn1)[C@@H](C)O)[C@@H](C)O)C(C)C)C(=O)O [Example 34, N^ε24-[(4S)-4-carboxy-4-[[2-[2-[2-[[2-[2-[2-[[(4S)-4-carboxy-4-(17-carboxyheptadecanoylamino)butanoyl]amino]ethoxy]ethoxy]acetyl]amino]ethoxy]ethoxy]acetyl]amino]butanoyl]-[Glu15,Lys24,Leu27,Leu29]-Glucagon] | 1.9
